One experiment has as its target LZK (Homo sapiens (Human), UniProt O43283). The experiment in a line: LZK biochemical assay (TR-FRET, MKK7 phosphorylation). Summed up:
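Catalytic-domain LZK (10 nM) phosphorylated His-MKK7 (15 nM) with 15 μM ATP for 90 min at RT. Phospho-T275/S277 detected by Eu-anti-phospho-MKK7/XL665-anti-His TR-FRET after 16 h at 32° C, using the 665/Eu ratio. Buffer: 50 mM Hepes pH 7.5, 10 mM MgCl2, 1 mM DTT.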
(Time-resolved FRET reads energy transfer from a long-lived donor to a nearby acceptor.)

A further experiment deals with DLK (Homo sapiens (Human), UniProt Q12852). The experiment is described as follows: DLK biochemical assay (TR-FRET, MKK7 phosphorylation). Summed up:
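Catalytic-domain DLK (10 nM) phosphorylates His-MKK7 (15 nM) with 60 μM ATP, 90 min at RT, in pH 7.5 HEPES buffer. Phospho-T275/S277 read by TR-FRET (Eu anti-phospho donor, XL665 anti-His acceptor) after 16 h detection, at 37° C. in 1536 or 4° C. in 384 format.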

Chain of LZK (O43283 168-409): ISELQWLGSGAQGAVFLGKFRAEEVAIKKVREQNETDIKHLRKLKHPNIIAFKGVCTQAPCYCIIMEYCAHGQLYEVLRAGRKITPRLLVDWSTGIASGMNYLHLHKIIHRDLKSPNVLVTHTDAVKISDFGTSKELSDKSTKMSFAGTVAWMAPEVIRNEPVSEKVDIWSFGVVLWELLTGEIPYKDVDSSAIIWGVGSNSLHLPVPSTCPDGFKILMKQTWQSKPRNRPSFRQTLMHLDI
Chain of DLK (Q12852 1-520): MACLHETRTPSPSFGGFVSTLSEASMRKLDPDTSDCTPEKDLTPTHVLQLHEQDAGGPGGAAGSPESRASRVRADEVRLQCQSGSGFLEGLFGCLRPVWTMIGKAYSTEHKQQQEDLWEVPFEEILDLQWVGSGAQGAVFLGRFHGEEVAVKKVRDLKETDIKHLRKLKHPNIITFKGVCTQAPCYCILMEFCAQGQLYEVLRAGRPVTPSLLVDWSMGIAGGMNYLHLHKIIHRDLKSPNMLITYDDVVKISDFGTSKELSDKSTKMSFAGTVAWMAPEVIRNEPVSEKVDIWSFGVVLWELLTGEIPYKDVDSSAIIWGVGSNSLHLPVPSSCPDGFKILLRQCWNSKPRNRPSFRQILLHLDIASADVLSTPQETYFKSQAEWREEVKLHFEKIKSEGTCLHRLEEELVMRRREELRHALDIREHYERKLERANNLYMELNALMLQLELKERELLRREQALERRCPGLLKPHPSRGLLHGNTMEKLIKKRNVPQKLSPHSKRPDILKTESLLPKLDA

As a reminder, the IC50 is the concentration that inhibits the measured activity by half. A low value points to higher potency. On to `CCN(CC)Cc1ccc(CNC(=O)c2cc(-c3ccc4nc(N)nn4c3)cs2)cc1` [Compound 329], for which the IC50 turned out to be 21 µM against LZK and 740 nM at DLK.

Regarding `CC(NC(=O)c1cc(-c2ccc3nc(N)nn3c2)cs1)c1cnn(C)c1` (centres unmarked) [Compound 330], the IC50 at LZK was 12 µM; against DLK, 640 nM.

Turning to `CCn1ccc(C(C)NC(=O)c2cc(-c3ccc4nc(N)nn4c3)cs2)n1` (centres unmarked) [Compound 331], the figures for the IC50 against LZK and against DLK were 13 µM and 910 nM, respectively.

As to `CC(NC(=O)c1cc(-c2ccc3nc(N)nn3c2)cs1)c1nc2c(s1)CCCC2` (centres unmarked) [Compound 332], the IC50 against LZK was found to be 3.1 µM; against DLK, 150 nM.

In the case of `CC(NC(=O)c1cc(-c2ccc3nc(N)nn3c2)cs1)c1cn[nH]c1` (centres unmarked) [Compound 333], the values for the IC50 on LZK and on DLK were 6.8 µM and 490 nM, respectively.

As to `Cc1nc(C(C)NC(=O)c2cc(-c3ccc4nc(N)nn4c3)cs2)sc1C` (centres unmarked) [Compound 334], the IC50 against LZK stood at 5.8 µM; on DLK, 400 nM.

As for `CC(NC(=O)c1cc(-c2ccc3nc(N)nn3c2)cs1)c1nc2ccccc2n1C` (centres unmarked) [Compound 335], the IC50 against LZK came to 3.5 µM; on DLK, 140 nM.

As to `Nc1nc2ccc(-c3csc(C(=O)NC(c4ccc(F)cc4)C(F)(F)F)c3)cn2n1` (centres unmarked) [Compound 336], the IC50 against LZK was above 30 µM; against DLK, 290 nM.

Consider `Nc1nc2ccc(-c3csc(C(=O)NC(CO)c4ccc(F)cc4)c3)cn2n1` (centres unmarked) [Compound 337], for which the IC50 at LZK came out at 1.4 µM; at DLK, 480 nM.

Consider `CCC(NC(=O)c1cc(-c2ccc3nc(N)nn3c2)cs1)c1ccc(F)cc1` (centres unmarked) [Compound 338], for which the IC50 against LZK is above 30 µM; at DLK, 190 nM.

Regarding `COC[C@H](C)NC(=O)c1cc(-c2ccc3nc(N)nn3c2)cs1` [Compound 339], the IC50 on LZK was above 30 µM; against DLK, 2300 nM.

`Nc1nc2ccc(-c3csc(C(=O)NC4COC4)c3)cn2n1` [Compound 340]: the IC50 against LZK is above 30 µM; on DLK, 4300 nM.

Consider `Nc1nc2ccc(-c3csc(C(=O)N[C@@H](CCO)c4ccc(F)cc4)c3)cn2n1` [Compound 341], for which the figures for the IC50 on LZK and against DLK were 5.1 µM and 230 nM, respectively.

For `Nc1nc2ccc(-c3csc(C(=O)NCc4ccc(CN5CCOCC5)cc4)c3)cn2n1` [Compound 342], the IC50 amounted to 17 µM against LZK and 520 nM at DLK.

On to `CN1CCN(Cc2ccc(CNC(=O)c3cc(-c4ccc5nc(N)nn5c4)cs3)cc2)CC1` [Compound 343], for which the IC50 at LZK amounted to 27 µM; at DLK it was 860 nM.

Consider `Nc1nc2ccc(-c3csc(C(=O)NCc4ccc(CN5CCCC5)cc4)c3)cn2n1` [Compound 344], for which the figures for the IC50 at LZK and against DLK were 21 µM and 470 nM, respectively.

Take `C[C@@H](CO)NC(=O)c1cc(-c2ccc3nc(N)nn3c2)cs1` [Compound 345]: the results for the IC50 at LZK and against DLK were above 30 µM and 2300 nM, respectively.

For `Nc1nc2ccc(-c3csc(C(=O)NC(c4ccccc4)C4CC4)c3)cn2n1` (centres unmarked) [Compound 346], the half-inhibitory concentration (IC50) turned out to be 29 µM at LZK and 79 nM against DLK.

As to `Nc1nc2ccc(-c3csc(C(=O)NC(c4ccccc4)C4CC4)c3)cn2n1` (centres unmarked) [Compound 347], the IC50 was above 30 µM on LZK and 130 nM at DLK.

Take `CC(NC(=O)c1cc(-c2ccc3nc(N)nn3c2)cs1)c1ccc(C(C)(C)C)cc1` (centres unmarked) [Compound 348]: the results for the IC50 on LZK and against DLK were 30 µM and 30000 nM, respectively.

Turning to `Cc1ccc([C@H](C)NC(=O)c2cc(-c3ccc4nc(N)nn4c3)cs2)cc1` [Compound 349], the IC50 against LZK was 24 µM; on DLK, 230 nM.

In the case of `CC(NC(=O)c1cc(-c2ccc3nc(N)nn3c2)cs1)c1nccn1C` (centres unmarked) [Compound 350], the results for the IC50 against LZK and against DLK were 20.5 µM and 760 nM, respectively.

`Cc1c(-c2ccc3nc(N)nn3c2)csc1C(=O)N[C@@H](C)c1ccc(F)cc1` [Compound 351]: the IC50 against LZK stood at 20 µM; on DLK, 6400 nM.

On to `Cc1c(-c2ccc3nc(N)nn3c2)csc1C(=O)NCc1ccc(F)cc1` [Compound 352], for which the IC50 on LZK was above 30 µM; on DLK, 1000 nM.

As for `C[C@H](NC(=O)c1cc(-c2ccc3nc(N)nn3c2)cs1)c1ccc(C(F)(F)F)cc1` [Compound 353], the IC50 at LZK is above 30 µM; against DLK it was 210 nM.

On to `COc1ccc([C@H](C)NC(=O)c2cc(-c3ccc4nc(N)nn4c3)cs2)cc1` [Compound 354], for which the IC50 against LZK was above 30 µM; on DLK it was 110 nM.

Turning to `C[C@H](NC(=O)c1cc(-c2ccc3nc(N)nn3c2)cs1)c1ccc(Cl)cc1` [Compound 355], the IC50 against LZK is above 30 µM; against DLK, 210 nM.

`C[C@H](NC(=O)c1cc(-c2ccc3nc(N)nn3c2)cs1)c1ccc(OC(F)(F)F)cc1` [Compound 356]: the half-inhibitory concentration (IC50) was above 30 µM against LZK and 310 nM at DLK.

Turning to `CC(NC(=O)c1cc(-c2ccc3nc(N)nn3c2)cs1)c1ccc(OCC(F)F)cc1` (centres unmarked) [Compound 357], the IC50 was above 30 µM on LZK and 210 nM at DLK.

Turning to `C[C@H](NC(=O)c1cc(-c2ccc3nc(N)nn3c2)cs1)c1nc2ccccc2o1` [Compound 358], the IC50 was found to be 1.2 µM at LZK and 110 nM at DLK.

`C[C@H](NC(=O)c1cc(-c2ccc3nc(N)nn3c2)cs1)c1ccccc1F` [Compound 359]: the values for the IC50 against LZK and against DLK were above 30 µM and 160 nM, respectively.

Regarding `CC(NC(=O)c1cc(-c2ccc3nc(N)nn3c2)cs1)c1ccc(F)cc1F` (centres unmarked) [Compound 360], the IC50 against LZK was above 30 µM; at DLK it was 400 nM.

`CC(NC(=O)c1cc(-c2ccc3nc(N)nn3c2)cs1)c1ccc(OC(F)(F)F)cc1` (centres unmarked) [Compound 361]: the IC50 against LZK is above 30 µM; at DLK, 1900 nM.

In the case of `C[C@H](NC(=O)c1cc(-c2ccc3nc(N)nn3c2)c(F)s1)c1ccc(F)cc1` [Compound 362], the IC50 against LZK is 23 µM; against DLK it was 8200 nM.

As to `Nc1nc2cc(-c3csc(C(=O)NCc4ccc(F)cc4)c3)ccn2n1` [Compound 363], the half-maximal inhibitory concentration (IC50) worked out at 8.7 µM on LZK and 640 nM against DLK.

For `COc1cccc(CNC(=O)c2cc(-c3ccn4nc(N)nc4c3)cs2)c1` [Compound 364], the IC50 against LZK was 19 µM; on DLK, 400 nM.

`Nc1nc2cc(-c3csc(C(=O)NCc4ccccc4)c3)ccn2n1` [Compound 365]: the IC50 was determined as 11 µM against LZK and 500 nM against DLK.

For the molecule `Nc1nc2cc(-c3csc(C(=O)NCC4CCCCC4)c3)ccn2n1` [Compound 366], the values for the concentration for half-maximal inhibition (IC50) against LZK and against DLK were above 30 µM and 310 nM, respectively.

Turning to `CCOc1cccc(CNC(=O)c2cc(-c3ccn4nc(N)nc4c3)cs2)c1` [Compound 367], the concentration for half-maximal inhibition (IC50) against LZK was 28 µM; against DLK, 300 nM.

For `Cc1cccc(C)c1NC(=O)c1cc(-c2ccn3nc(N)nc3c2)cs1` [Compound 368], the IC50 at LZK was determined as 13 µM; on DLK it was 670 nM.

In the case of `C[C@H](NC(=O)c1cc(-c2ccn3nc(N)nc3c2)cs1)c1ccc(F)cc1` [Compound 369], the half-maximal inhibitory concentration (IC50) against LZK turned out to be 1.9 µM; on DLK, 230 nM.

As for `Nc1nc2cc(-c3csc(C(=O)NCc4ccc(F)cc4)c3)cc(C(=O)O)n2n1` [Compound 370], the IC50 against LZK is above 30 µM; on DLK, 4400 nM.

In the case of `Cc1cc(-c2csc(C(=O)NCc3ccc(F)cc3)c2)cn2nc(N)nc12` [Compound 371], the half-maximal inhibitory concentration (IC50) against LZK came out at 2.3 µM; on DLK, 500 nM.

Turning to `COc1cccc(CNC(=O)c2cc(-c3cc(C)c4nc(N)nn4c3)cs2)c1` [Compound 372], the figures for the IC50 against LZK and against DLK were 9.2 µM and 430 nM, respectively.

As to `Cc1cc(-c2csc(C(=O)NCc3ccccc3)c2)cn2nc(N)nc12` [Compound 373], the IC50 against LZK was found to be 2.8 µM; at DLK, 370 nM.

In the case of `Cc1cc(-c2csc(C(=O)NC3CCCCC3)c2)cn2nc(N)nc12` [Compound 374], the figures for the IC50 at LZK and on DLK were 9.3 µM and 280 nM, respectively.

As for `Nc1nc2c(C(F)(F)F)cc(-c3csc(C(=O)NCc4ccc(F)cc4)c3)cn2n1` [Compound 375], the figures for the IC50 at LZK and against DLK were 3.3 µM and 840 nM, respectively.

For the molecule `C[C@H](NC(=O)c1cc(-c2cc(C(F)(F)F)c3nc(N)nn3c2)cs1)c1ccccc1` [Compound 376], the values for the IC50 on LZK and on DLK were 4.9 µM and 260 nM, respectively.

As for `C[C@H](NC(=O)c1cc(-c2cc(C(F)(F)F)c3nc(N)nn3c2)cs1)c1ccc(F)cc1` [Compound 377], the IC50 on LZK is 2.4 µM; at DLK, 210 nM.

As for `Nc1nc2c(C(F)(F)F)cc(-c3csc(C(=O)NCc4ccccc4)c3)cn2n1` [Compound 378], the figures for the IC50 against LZK and at DLK were 9.5 µM and 1800 nM, respectively.

Turning to `Nc1nc2c(C(F)(F)F)cc(-c3csc(C(=O)NC4CCCCC4)c3)cn2n1` [Compound 379], the IC50 on LZK was determined as 20 µM; on DLK, 970 nM.

In the case of `COc1cccc(CNC(=O)c2cc(-c3cc(C(F)(F)F)c4nc(N)nn4c3)cs2)c1` [Compound 380], the IC50 was above 30 µM on LZK and 1100 nM at DLK.

For `COc1cccc(CNC(=O)c2cc(-c3cc(F)c4nc(N)nn4c3)cs2)c1` [Compound 381], the IC50 against LZK is above 30 µM; against DLK, 380 nM.

For `Nc1nc2c(F)cc(-c3csc(C(=O)NCc4ccc(F)cc4)c3)cn2n1` [Compound 382], the IC50 on LZK was above 30 µM; against DLK it was 310 nM.

For `C[C@H](NC(=O)c1cc(-c2cc(F)c3nc(N)nn3c2)cs1)c1ccc(F)cc1` [Compound 383], the IC50 at LZK is above 30 µM; against DLK, above 30000 nM.

The record behind these values is patent US20230382904A1, “SUBSTITUTED 4-([1,2,4]TRIAZOLO[1,5-a]PYRIDIN-6-YL)THIOPHENE-2-CARBOXAMIDE DERIVATIVES AND USE THEREOF” (The Johns Hopkins University, priority 2020, published 2023).
